Measured values taken from paper PMC7265434, “Zika Virus NS3 Protease Pharmacophore Anchor Model and Drug Discovery” (Scientific Reports, 2020).

Biological target: T1, ZIKV NS2B/NS3 protease (Zika virus, UniProt Q32ZE1)
T1 construct: cut from ZIKV genome polyprotein
Assay: fluorogenic protease assay, AMC release
Type: biochemical

T1 sequence (Q32ZE1 1499-1668): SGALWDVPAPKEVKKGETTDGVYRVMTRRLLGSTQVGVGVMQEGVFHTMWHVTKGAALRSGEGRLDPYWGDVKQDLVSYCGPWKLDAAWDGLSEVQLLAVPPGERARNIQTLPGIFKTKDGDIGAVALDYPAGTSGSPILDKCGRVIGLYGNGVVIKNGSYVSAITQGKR
T1 sequence (Q32ZE1 1417-1463): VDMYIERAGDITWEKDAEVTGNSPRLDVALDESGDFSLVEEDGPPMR

SMILES: C=C[C@@H]1C[C@]1(NC(=O)[C@@H]1C[C@@H](Oc2ncc(OC)c3ccc(Cl)cc23)CN1C(=O)[C@@H](NC(=O)OC(C)(C)C)C(C)(C)C)C(=O)NS(=O)(=O)C1CC1 [Asunaprevir]
- IC50: 6 µM

SMILES: COc1ccc2c(O[C@@H]3C[C@H]4C(=O)N[C@]5(C(=O)NS(=O)(=O)C6CC6)C[C@H]5/C=C\CCCCN(C)C(=O)[C@@H]4C3)cc(-c3nc(C(C)C)cs3)nc2c1C [Simeprevir]
- IC50: 2.6 µM
